Measurements taken from ChEMBL document CHEMBL3784917, “Recent Progress in Histone Demethylase Inhibitors” (J Med Chem, 2016).
pIC50: −log10 of the molar value.

What was measured:
[1] = target: T1, Lysine-specific demethylase 2A (Homo sapiens, UniProt Q9Y2K7); assay: Inhibition of KDM2A (unknown origin) after 24 hrs by alphascreen assay
T1 sequence (Q9Y2K7 whole entry): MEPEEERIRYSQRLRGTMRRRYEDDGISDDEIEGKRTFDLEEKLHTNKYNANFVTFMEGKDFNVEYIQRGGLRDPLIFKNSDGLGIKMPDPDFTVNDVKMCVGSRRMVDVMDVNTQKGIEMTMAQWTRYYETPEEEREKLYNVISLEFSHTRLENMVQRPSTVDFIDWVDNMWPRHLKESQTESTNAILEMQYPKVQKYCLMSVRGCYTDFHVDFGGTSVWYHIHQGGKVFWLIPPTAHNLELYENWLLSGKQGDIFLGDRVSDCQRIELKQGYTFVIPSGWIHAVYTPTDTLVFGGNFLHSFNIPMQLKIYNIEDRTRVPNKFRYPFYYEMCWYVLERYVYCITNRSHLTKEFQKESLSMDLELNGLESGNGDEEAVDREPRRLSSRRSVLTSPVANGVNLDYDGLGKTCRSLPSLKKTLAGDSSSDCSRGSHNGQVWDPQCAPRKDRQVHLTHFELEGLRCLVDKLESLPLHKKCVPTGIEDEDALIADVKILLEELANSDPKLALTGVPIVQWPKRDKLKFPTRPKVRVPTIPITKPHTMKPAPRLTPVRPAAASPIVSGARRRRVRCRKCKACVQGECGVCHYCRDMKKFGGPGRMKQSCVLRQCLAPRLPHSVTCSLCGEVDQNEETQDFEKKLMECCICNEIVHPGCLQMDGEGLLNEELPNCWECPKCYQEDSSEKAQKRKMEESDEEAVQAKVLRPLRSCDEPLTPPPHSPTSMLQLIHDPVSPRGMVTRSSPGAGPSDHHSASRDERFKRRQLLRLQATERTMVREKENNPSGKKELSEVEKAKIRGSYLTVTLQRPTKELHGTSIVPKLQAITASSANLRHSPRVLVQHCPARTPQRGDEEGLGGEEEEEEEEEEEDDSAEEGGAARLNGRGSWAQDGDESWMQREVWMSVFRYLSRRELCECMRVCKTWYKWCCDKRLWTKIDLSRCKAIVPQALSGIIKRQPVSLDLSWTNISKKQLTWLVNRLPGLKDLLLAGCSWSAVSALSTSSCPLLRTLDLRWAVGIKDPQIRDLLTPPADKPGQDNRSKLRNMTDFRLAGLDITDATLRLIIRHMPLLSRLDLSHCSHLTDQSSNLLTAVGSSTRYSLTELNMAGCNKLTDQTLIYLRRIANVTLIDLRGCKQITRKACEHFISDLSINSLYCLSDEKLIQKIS

[2] = target: Lysine-specific demethylase 4E (Homo sapiens, UniProt B2RXH2); assay: Inhibition of KDM4E (unknown origin) after 24 hrs by alphascreen assay
[3] = target: T2, Lysine-specific demethylase 3A (Homo sapiens, UniProt Q9Y4C1); assay: Inhibition of KDM3A (unknown origin) after 24 hrs by alphascreen assay
T2 sequence (Q9Y4C1 whole entry): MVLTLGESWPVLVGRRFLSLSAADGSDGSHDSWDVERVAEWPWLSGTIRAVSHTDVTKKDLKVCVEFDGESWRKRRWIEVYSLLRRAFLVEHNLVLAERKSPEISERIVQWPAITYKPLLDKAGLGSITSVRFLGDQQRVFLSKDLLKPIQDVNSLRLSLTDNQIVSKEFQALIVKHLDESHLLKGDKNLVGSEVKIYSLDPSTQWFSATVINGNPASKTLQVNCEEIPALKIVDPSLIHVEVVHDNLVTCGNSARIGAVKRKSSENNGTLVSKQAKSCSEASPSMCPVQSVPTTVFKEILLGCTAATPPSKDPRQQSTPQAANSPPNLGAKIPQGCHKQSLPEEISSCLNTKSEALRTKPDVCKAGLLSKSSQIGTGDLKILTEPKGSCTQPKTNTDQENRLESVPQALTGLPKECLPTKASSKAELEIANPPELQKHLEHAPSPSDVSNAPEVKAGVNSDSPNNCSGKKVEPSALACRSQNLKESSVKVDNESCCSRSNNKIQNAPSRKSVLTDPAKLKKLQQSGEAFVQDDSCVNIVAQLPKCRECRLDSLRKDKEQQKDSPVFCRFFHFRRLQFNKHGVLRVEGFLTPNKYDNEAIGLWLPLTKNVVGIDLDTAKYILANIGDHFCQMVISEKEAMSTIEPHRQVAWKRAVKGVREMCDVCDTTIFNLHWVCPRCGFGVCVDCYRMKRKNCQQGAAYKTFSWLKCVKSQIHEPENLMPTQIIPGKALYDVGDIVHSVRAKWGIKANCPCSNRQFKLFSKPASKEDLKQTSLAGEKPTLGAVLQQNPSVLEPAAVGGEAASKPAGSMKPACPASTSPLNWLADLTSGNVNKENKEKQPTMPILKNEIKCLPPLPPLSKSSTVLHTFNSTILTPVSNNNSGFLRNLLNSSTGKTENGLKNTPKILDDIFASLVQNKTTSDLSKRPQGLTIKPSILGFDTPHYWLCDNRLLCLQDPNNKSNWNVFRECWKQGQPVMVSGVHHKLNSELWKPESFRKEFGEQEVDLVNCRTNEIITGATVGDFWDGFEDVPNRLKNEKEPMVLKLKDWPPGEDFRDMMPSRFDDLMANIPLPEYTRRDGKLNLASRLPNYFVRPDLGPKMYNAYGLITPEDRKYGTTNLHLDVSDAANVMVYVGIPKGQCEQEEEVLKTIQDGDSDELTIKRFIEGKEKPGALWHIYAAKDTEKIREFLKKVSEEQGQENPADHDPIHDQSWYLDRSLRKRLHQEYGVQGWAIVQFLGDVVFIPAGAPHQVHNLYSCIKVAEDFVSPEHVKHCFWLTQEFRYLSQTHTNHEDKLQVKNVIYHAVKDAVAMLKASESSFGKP

[4] = target: Lysine-specific demethylase 5C (Homo sapiens, UniProt P41229); assay: Inhibition of KDM5C (unknown origin) preincubated for 15 mins followed by histone substrate addition measured after 1 hr by alphascreen assay
Egl nine homolog 1 = Egl nine homolog 1 (Homo sapiens, UniProt Q9GZT9); assay: Inhibition of PHD2 (unknown origin) preincubated for 15 mins followed by histone substrate addition measured after 1 hr by alphascreen assay
Sequence of Egl nine homolog 1 (Q9GZT9 whole entry): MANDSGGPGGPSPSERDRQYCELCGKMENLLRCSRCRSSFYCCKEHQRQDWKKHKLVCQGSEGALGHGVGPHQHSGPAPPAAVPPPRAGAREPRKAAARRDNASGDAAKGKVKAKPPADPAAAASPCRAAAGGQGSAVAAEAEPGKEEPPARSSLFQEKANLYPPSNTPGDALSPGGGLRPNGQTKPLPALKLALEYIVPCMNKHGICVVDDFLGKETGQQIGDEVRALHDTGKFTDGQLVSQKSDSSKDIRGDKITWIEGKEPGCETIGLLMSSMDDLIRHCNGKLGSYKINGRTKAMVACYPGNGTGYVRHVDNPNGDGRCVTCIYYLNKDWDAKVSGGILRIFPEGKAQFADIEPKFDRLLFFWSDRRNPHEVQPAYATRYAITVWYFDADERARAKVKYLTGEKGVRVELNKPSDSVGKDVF

Sequence of Lysine-specific demethylase 4E (B2RXH2 whole entry): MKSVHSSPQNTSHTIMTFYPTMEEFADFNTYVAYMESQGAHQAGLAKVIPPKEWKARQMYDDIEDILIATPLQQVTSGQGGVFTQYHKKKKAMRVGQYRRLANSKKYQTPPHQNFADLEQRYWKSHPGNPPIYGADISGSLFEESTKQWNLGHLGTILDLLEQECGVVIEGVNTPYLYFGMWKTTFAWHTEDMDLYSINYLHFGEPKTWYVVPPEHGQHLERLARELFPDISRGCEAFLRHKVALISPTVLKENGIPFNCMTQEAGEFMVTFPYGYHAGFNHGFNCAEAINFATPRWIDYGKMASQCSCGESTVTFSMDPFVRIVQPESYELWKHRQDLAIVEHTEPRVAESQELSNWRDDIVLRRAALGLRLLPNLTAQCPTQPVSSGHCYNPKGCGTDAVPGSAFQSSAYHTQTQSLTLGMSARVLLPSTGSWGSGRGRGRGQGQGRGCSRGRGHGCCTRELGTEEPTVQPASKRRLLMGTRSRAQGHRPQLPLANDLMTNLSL
Sequence of Lysine-specific demethylase 5C (P41229 whole entry): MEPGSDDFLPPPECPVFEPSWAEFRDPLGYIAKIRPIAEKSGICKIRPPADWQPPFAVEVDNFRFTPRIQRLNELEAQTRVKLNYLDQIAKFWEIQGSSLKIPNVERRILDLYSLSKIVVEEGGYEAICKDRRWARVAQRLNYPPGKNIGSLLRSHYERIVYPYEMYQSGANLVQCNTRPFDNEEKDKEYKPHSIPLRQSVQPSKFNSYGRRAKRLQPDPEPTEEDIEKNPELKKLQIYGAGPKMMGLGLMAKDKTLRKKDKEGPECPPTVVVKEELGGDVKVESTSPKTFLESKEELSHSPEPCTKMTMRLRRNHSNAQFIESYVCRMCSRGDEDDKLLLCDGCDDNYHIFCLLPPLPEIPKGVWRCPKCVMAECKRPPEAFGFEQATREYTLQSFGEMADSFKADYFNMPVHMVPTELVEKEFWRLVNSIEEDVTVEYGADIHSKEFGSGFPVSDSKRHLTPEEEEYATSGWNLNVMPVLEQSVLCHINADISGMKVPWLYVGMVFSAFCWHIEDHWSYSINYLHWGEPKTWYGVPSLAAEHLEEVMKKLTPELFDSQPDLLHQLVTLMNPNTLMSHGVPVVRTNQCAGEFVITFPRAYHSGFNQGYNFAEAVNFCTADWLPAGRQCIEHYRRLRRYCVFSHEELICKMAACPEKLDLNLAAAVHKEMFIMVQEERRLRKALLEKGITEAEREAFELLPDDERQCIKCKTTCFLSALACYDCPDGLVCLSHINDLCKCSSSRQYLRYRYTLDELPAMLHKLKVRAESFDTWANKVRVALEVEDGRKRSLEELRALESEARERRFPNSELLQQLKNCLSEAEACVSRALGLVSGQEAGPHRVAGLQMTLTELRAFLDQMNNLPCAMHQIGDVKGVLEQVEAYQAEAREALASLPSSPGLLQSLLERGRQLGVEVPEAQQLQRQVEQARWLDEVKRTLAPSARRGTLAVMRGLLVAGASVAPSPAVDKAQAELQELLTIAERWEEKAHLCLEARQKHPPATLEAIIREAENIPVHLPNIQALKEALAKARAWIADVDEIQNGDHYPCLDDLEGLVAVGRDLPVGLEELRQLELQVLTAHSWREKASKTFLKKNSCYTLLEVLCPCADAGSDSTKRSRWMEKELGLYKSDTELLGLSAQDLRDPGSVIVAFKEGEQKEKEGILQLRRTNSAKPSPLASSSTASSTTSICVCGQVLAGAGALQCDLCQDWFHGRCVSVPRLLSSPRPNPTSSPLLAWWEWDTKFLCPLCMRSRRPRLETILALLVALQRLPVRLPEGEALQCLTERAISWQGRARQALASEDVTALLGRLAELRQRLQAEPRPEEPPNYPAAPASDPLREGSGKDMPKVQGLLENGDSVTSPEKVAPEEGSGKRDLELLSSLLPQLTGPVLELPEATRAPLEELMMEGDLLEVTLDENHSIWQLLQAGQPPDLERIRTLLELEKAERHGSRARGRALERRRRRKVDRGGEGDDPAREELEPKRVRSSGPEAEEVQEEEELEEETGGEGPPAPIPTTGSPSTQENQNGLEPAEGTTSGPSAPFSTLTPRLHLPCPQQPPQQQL

Compound: CCCCCCCCOC(=O)c1ccc(O)c2ncccc12
- pIC50 [1]: < 4.00
- pIC50 [2]: 4.35
- pIC50 [3]: < 4.00

Compound: Cc1ccsc1C(NC(=O)c1ccccc1)c1cc(Cl)c2cccnc2c1O (racemic)
- pIC50 [4]: 3.75
- pIC50 (Egl nine homolog 1): 4.02
